Source: ChEMBL document CHEMBL2434905, “2-Amino-6-chloro-3,4-dihydroquinazoline: A novel 5-HT3 receptor antagonist with antidepressant character” (Bioorg Med Chem Lett, 2013)

Tests used:
[1] = target: Nicotinic acetylcholine receptor alpha2/beta4 (Homo sapiens, UniProt P02708+P30926); assay: Displacement of [3H]-epibatidine from human alpha2beta4 nAChR transfected in HEK293 cells by scintillation counting analysis; assay type: cell-based
D(1A) dopamine receptor = D(1A) dopamine receptor (Homo sapiens, UniProt P21728); assay: Displacement of [3H]SCH23390 from human recombinant dopamine D1 receptor expressed in HEK cells after 90 mins by scintillation counting analysis; assay type: cell-based, HEK293
[2] = target: Neuronal acetylcholine receptor; alpha4/beta2 (Homo sapiens, UniProt P17787+P43681); assay: Displacement of [3H]-epibatidine from human alpha4beta2 nAChR transfected in HEK293 cells by scintillation counting analysis; assay type: cell-based
[3] = target: 5-hydroxytryptamine receptor 2C (Homo sapiens, UniProt P28335); assay: Displacement of [3H]Mesulergine from human recombinant 5-HT2C receptor expressed in HEK cells after 90 mins by scintillation counting analysis; assay type: cell-based, HEK293
[4] = target: Sodium-dependent dopamine transporter (Homo sapiens, UniProt Q01959); assay: Displacement of [3H]WIN35428 from human recombinant sodium-dependent dopamine transporter expressed in HEK cells after 90 mins by scintillation counting analysis; assay type: cell-based, HEK293
[5] = target: Alpha-1D adrenergic receptor (Homo sapiens, UniProt P25100); assay: Displacement of [3H]Prazosin from human recombinant alpha1D-adrenoceptor after 90 mins by scintillation counting analysis
[6] = Lipophilicity, log P of the compound by HPLC analysis; assay type: physicochemical
[7] = target: 5-hydroxytryptamine receptor 4 (Homo sapiens, UniProt Q13639); assay: Displacement of [[3H]GR113808 from human recombinant 5-HT4 receptor after 90 mins by scintillation counting analysis
[8] = target: 5-hydroxytryptamine receptor 6 (Homo sapiens, UniProt P50406); assay: Displacement of [3H]LSD from human recombinant 5-HT6 receptor expressed in HEK cells after 90 mins by scintillation counting analysis; assay type: cell-based, HEK293
[9] = target: T1, 5-hydroxytryptamine receptor 3A (Homo sapiens, UniProt P46098); assay: Displacement of [3H]GR65630 from 5-HT3 receptor (unknown origin) expressed in mouse/rat NG108-15 cells after 30 mins by liquid scintillation counting analysis; assay type: cell-based
T1 sequence (P46098 whole entry): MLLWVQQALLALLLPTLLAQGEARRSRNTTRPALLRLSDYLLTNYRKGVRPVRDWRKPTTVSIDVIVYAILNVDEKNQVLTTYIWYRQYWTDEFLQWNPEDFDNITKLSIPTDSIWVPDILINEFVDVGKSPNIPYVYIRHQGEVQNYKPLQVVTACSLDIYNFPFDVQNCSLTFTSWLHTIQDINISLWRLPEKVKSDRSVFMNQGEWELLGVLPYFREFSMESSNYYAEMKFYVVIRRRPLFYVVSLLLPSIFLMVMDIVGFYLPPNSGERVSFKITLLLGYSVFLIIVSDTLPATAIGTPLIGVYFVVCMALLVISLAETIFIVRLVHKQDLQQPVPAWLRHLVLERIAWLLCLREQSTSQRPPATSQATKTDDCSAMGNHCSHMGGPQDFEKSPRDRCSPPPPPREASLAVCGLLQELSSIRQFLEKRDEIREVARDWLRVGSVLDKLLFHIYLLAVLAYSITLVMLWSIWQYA

[10] = target: 5-hydroxytryptamine receptor 1D (Homo sapiens, UniProt P28221); assay: Displacement of [3H]5-CT from human recombinant 5-HT1D receptor expressed in HEK cells after 90 mins by scintillation counting analysis; assay type: cell-based, HEK293
[11] = target: Nicotinic acetylcholine receptor alpha2/beta2 (Homo sapiens, UniProt P02708+P17787); assay: Displacement of [3H]-epibatidine from human alpha2beta2 nAChR transfected in HEK293 cells by scintillation counting analysis; assay type: cell-based
[12] = Displacement of [3H]Muscimol from GABAA in rat brain after 90 mins by scintillation counting analysis; assay type: tissue-based
[13] = target: Sodium-dependent serotonin transporter (Homo sapiens, UniProt P31645); assay: Displacement of [3H]cfitalopramfrom human recombinant serotonin transporter expressed in HEK cells after 90 mins by scintillation counting analysis; assay type: cell-based, HEK293
D(4) dopamine receptor = D(4) dopamine receptor (Homo sapiens, UniProt P21917); assay: Displacement of [3H]N-methylspiperone from dopamine D4 receptor (unknown origin) after 90 mins by scintillation counting analysis
[14] = target: Muscarinic acetylcholine receptor M5 (Homo sapiens, UniProt P08912); assay: Binding affinity to human recombinant muscarinic M5 receptor expressed in CHO cells after 90 mins by radioligand displacement assay; assay type: cell-based
[15] = target: Muscarinic acetylcholine receptor M4 (Homo sapiens, UniProt P08173); assay: Binding affinity to human recombinant muscarinic M4 receptor expressed in CHO cells after 90 mins by radioligand displacement assay; assay type: cell-based
D(2) dopamine receptor = D(2) dopamine receptor (Homo sapiens, UniProt P14416); assay: Displacement of [[3H]N-methylspiperone from human recombinant dopamine D2 receptor expressed in human fibroblasts after 90 mins by scintillation counting analysis
[16] = target: T1, 5-hydroxytryptamine receptor 3A; assay: Displacement of [3H]GR65630 from human 5-HT3 receptor expressed in African green monkey COS cells after 90 mins by scintillation counting analysis; assay type: cell-based
[17] = target: 5-hydroxytryptamine receptor 1E (Homo sapiens, UniProt P28566); assay: Displacement of [3H]5-HT from human recombinant 5-HT1E receptor expressed in HEK cells after 90 mins by scintillation counting analysis; assay type: cell-based, HEK293
[18] = target: Sigma non-opioid intracellular receptor 1 (Cavia porcellus, UniProt Q60492); assay: Displacement of [3H]Pentazocine from guinea pig sigma1 receptor after 90 mins by scintillation counting analysis
Mu-type opioid receptor = Mu-type opioid receptor (Homo sapiens, UniProt P35372); assay: Displacement of [3H]DAMGO from human recombinant mu opioid receptor expressed in HEK cells after 90 mins by scintillation counting analysis; assay type: cell-based, HEK293
[19] = target: Beta-1 adrenergic receptor (Homo sapiens, UniProt P08588); assay: Binding affinity to human recombinant beta1-adrenoceptor expressed in CHO cells after 90 mins by radioligand displacement assay; assay type: cell-based
Histamine H1 receptor = Histamine H1 receptor (Homo sapiens, UniProt P35367); assay: Displacement of [3H]Pyrilamine from human recombinant histamine H1 receptor expressed in HEK cells after 90 mins by scintillation counting analysis; assay type: cell-based, HEK293
Histamine H3 receptor = Histamine H3 receptor (Homo sapiens, UniProt Q9Y5N1); assay: Displacement of [3H]-alpha-methylhistamine from human recombinant histamine H3 receptor expressed in HEK cells after 90 mins by scintillation counting analysis; assay type: cell-based, HEK293
[20] = target: Alpha-2A adrenergic receptor (Homo sapiens, UniProt P08913); assay: Displacement of [3H]Rauwolscine from human recombinant alpha2A-adrenoceptor expressed in MDCK cells after 90 mins by scintillation counting analysis; assay type: cell-based
[21] = target: Muscarinic acetylcholine receptor M1 (Homo sapiens, UniProt P11229); assay: Binding affinity to human recombinant muscarinic M1 receptor expressed in CHO cells after 90 mins by radioligand displacement assay; assay type: cell-based
Chain of Muscarinic acetylcholine receptor M1 (P11229 whole entry): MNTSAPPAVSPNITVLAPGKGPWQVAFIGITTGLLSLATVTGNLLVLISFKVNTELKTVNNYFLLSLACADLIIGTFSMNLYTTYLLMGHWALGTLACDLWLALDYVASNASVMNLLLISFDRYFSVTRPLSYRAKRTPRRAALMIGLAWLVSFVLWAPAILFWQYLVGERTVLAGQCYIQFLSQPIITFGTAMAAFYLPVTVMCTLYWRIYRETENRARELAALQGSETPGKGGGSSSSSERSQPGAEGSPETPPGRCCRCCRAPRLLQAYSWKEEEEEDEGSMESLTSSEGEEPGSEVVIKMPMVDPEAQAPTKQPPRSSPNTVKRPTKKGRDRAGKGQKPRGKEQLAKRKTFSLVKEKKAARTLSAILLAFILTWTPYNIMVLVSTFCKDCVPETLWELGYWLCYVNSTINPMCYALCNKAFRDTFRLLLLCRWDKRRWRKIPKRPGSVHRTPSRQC

Chain of D(4) dopamine receptor (P21917 whole entry): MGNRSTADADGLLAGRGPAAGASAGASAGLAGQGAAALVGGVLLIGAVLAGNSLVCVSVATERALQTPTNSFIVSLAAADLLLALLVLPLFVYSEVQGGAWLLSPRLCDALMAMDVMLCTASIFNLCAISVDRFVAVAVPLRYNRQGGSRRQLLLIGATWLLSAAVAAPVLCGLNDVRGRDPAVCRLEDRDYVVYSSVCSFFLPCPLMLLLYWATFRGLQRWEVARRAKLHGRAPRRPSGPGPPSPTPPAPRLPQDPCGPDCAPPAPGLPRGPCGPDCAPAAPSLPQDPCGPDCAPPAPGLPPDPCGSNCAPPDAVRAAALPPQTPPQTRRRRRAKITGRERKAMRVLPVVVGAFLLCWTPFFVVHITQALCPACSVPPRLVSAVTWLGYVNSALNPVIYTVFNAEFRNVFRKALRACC
Chain of Sodium-dependent serotonin transporter (P31645 whole entry): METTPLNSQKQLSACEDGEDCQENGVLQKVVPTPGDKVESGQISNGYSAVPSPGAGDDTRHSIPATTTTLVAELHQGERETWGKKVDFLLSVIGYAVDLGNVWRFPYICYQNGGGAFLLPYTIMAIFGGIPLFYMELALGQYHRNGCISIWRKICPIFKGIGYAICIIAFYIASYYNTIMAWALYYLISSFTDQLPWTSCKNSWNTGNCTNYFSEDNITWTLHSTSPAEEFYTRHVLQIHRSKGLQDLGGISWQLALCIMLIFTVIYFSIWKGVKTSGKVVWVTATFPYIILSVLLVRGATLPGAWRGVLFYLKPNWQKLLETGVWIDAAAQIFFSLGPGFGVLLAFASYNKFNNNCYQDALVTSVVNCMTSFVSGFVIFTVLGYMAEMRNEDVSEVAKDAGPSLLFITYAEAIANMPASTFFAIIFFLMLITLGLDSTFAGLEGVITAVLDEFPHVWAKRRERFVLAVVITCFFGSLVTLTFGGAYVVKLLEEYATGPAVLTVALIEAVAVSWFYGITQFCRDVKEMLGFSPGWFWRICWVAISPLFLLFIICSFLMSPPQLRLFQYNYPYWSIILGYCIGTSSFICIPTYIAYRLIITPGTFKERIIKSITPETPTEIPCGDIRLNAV
Chain of 5-hydroxytryptamine receptor 6 (P50406 whole entry): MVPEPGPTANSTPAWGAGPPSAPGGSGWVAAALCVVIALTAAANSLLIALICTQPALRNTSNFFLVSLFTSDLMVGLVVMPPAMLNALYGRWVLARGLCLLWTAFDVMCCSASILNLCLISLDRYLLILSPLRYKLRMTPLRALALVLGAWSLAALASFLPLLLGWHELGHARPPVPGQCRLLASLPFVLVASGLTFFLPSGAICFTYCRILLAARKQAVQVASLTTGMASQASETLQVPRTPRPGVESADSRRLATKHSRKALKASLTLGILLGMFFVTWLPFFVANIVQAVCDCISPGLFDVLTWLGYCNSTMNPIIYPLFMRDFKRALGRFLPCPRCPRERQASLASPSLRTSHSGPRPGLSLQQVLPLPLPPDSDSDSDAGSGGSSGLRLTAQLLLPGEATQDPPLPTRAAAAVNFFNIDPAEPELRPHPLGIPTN
Chain of Sodium-dependent dopamine transporter (Q01959 whole entry): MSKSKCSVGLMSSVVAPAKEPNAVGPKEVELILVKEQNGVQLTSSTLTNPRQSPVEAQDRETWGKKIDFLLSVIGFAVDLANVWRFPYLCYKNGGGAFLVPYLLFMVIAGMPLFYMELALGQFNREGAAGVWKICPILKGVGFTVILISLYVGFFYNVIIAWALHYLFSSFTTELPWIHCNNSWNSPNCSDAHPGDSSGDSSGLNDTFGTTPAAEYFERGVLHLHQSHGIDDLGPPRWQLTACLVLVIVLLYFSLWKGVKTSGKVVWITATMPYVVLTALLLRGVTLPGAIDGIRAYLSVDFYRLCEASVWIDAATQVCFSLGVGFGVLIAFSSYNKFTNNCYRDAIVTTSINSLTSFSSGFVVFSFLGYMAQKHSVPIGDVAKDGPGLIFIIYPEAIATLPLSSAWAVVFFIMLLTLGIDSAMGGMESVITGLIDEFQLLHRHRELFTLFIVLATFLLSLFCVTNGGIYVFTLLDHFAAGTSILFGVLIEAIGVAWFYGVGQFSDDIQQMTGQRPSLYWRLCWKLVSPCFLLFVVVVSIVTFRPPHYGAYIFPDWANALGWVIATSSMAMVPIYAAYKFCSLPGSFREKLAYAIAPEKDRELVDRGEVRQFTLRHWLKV
Chain of 5-hydroxytryptamine receptor 2C (P28335 whole entry): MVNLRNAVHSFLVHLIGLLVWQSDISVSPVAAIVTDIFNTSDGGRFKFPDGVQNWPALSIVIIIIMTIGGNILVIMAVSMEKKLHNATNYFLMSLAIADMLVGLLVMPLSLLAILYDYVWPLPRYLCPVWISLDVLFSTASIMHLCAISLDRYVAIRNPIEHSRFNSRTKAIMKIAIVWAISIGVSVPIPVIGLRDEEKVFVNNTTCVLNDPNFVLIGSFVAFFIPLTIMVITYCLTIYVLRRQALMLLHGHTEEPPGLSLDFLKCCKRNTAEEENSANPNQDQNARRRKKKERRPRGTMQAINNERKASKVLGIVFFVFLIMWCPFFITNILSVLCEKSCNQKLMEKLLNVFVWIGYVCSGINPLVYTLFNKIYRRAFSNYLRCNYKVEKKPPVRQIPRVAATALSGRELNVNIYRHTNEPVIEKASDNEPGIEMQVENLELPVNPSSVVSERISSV
Chain of Muscarinic acetylcholine receptor M5 (P08912 whole entry): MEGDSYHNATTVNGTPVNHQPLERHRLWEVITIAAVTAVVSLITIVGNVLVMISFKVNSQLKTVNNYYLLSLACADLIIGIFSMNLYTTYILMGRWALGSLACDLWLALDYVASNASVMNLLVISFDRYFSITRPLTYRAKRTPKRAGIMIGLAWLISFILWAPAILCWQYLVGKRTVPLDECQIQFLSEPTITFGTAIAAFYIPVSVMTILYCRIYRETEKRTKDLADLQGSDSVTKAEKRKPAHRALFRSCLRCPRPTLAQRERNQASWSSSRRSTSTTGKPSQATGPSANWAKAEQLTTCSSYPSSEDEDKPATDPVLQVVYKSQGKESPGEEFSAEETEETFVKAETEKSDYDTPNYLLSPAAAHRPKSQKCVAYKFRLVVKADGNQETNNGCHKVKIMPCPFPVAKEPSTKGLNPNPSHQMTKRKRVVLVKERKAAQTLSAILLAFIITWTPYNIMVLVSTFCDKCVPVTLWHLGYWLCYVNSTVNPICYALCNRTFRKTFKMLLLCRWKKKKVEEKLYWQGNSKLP
Chain of 5-hydroxytryptamine receptor 4 (Q13639 whole entry): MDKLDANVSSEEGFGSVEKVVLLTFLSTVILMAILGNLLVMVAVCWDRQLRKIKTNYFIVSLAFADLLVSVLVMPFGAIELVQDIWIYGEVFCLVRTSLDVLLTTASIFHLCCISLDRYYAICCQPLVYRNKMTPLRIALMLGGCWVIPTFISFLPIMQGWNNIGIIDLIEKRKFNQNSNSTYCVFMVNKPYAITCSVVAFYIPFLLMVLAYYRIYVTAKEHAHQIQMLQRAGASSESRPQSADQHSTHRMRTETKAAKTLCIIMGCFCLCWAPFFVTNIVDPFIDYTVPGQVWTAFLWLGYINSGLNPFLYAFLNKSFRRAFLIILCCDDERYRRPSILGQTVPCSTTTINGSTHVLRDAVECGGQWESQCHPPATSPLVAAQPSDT
Chain of Histamine H1 receptor (P35367 whole entry): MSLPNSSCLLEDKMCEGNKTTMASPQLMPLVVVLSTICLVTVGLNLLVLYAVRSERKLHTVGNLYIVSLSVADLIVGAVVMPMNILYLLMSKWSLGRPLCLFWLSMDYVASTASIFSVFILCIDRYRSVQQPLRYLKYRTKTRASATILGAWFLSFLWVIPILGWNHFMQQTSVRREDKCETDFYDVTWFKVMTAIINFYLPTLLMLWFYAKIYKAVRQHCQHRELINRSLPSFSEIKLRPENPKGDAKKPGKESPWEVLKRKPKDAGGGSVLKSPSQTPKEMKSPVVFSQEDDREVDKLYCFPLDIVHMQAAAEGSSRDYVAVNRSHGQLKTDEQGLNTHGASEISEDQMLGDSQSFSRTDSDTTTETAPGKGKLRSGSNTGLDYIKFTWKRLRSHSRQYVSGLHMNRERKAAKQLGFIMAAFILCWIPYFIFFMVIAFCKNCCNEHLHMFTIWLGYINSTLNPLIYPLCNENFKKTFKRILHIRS
Chain of D(1A) dopamine receptor (P21728 whole entry): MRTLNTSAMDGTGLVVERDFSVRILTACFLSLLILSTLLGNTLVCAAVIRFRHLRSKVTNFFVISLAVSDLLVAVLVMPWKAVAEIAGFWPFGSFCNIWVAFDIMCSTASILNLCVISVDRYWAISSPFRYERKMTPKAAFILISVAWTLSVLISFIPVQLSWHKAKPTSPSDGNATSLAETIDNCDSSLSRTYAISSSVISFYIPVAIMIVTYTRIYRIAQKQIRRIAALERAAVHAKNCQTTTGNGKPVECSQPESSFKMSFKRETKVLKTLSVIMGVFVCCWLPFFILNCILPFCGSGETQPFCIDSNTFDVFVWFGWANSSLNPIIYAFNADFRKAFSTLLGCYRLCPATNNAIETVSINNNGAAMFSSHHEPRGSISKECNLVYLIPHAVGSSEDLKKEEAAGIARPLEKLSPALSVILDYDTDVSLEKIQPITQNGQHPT

Ki [1]: > 10 µM
Ki (D(1A) dopamine receptor): > 10 µM
Ki [2]: > 10 µM
Ki [3]: 0.644 µM
Ki [4]: > 10 µM
Ki [5]: > 10 µM
logP [6]: 1.86
Ki [7]: > 10 µM
Ki [8]: > 10 µM
Ki [9]: 0.034 µM
Ki [10]: 0.684 µM
Ki [11]: > 10 µM
Ki [12]: > 10 µM
Ki [13]: > 10 µM
Ki (D(4) dopamine receptor; read-out: Ki): 5.8 µM
Ki (D(4) dopamine receptor; read-out: pKi (converted)): 5.13 µM
Ki [14]: > 10 µM
Ki [15]: > 10 µM
Ki (D(2) dopamine receptor): > 10 µM
Ki [16]: 0.08 µM
Ki [17]: > 10 µM
Ki [18]: 6.15 µM
Ki (Mu-type opioid receptor): > 10 µM
Ki [19]: > 10 µM
Ki (Histamine H1 receptor): > 10 µM
Ki (Histamine H3 receptor): > 10 µM
Ki [20]: 0.283 µM
Ki [21]: > 10 µM
SMILES: Cl.NC1=Nc2ccc(Cl)cc2CN1
